Measurements: patent publication US9527828B2, “Method for expanding hematopoietic stem cells using heterocyclic compound” (Nissan Chemical Industries, Ltd., priority 2007, dated 2016)

Key:
[1] = test system: CD34^+CD38^− cells; assay: Expansion of CD34+CD38− cells from human cord blood-derived CD34+ cells (Example 2); assay type: cell-based; conditions: 1 μg/mL compound, 50 ng/mL SCF, StemSpan SFEM, 7 days, based on number of CD34+CD38− cells in the absence of compound; for fold induction at 1 µg/mL: Homo sapiens, 168 h, read-out: Expansion efficiency
Experimental: The human cord blood-derived CD34^+ cells collected or purchased in Example 1 were plated on a 24-well plate (TPP) (10000 cells/1/mL/well). As the culture medium, StemSpan SFEM (Stemcell Technologies) containing 50 ng/mL SCF (Peprotech) was used, and Compounds No. 1 to 133 dissolved in dimethyl sulfoxide were added in an amount of 0.1% (v/v) to a final concentration of 1 μg/mL.
After the cells were incubated in liquid culture at 37° C. for 7 days in a CO2 incubator (5% CO2), the number of viable cells was counted by trypan blue assay. The number of CD34^+CD38^− cells was calculated as follows. After the incubation, the cells in the liquid culture was stained with a CD34 antibody (APC, Becton, Dickinson and Company) and a CD38 antibody (PE, Becton, Dickinson and Company), then washed with PBS(−) containing 2% (v/v) FBS and stained with propidium iodide (Sigma-Aldrich Japan) added to a final concentration of 5 μg/mL. The stained cells were analyzed with a flow cytometer JSAN (Bay Bioscience) to determined the proportion of CD34^+CD38^− cells, which was multiplied by the number of viable cells to calculate the number of CD34^+CD38^− cells.
The expansion efficiencies in the presence of 1 μg/mL of compounds based on the number of CD34^+CD38^− cells in the absence of them are shown in Tables 2 and 3 on a scale of A for expansion efficiencies of 10 or greater, B for expansion efficiencies of at least 5 and less than 10, and C for expansion efficiencies of at least 3 and less than 5.

[2] = test system: HPP-CFU colony forming cells; assay: Blood cell colony forming assay, HPP-CFC colonies (Example 5); assay type: cell-based, human; conditions: liquid cultures of Example 2 (1 μg/mL compound), 500 cells/dish, MethoCult GF H4435, 12 days, averaged
Experimental: The effects of Compounds No. 1, No. 2, and No. 4 of the present invention on hematopoietic progenitor cells were measured by blood cell colony forming assay. The liquid cell cultures obtained in Example 2 were poured into 3.5-cm Petri dishes with MethoCult GF H4435 culture medium (Stemcell Technologies) at 500 cells/dish and incubated in a CO2 incubator (5% CO2, 37° C.) for 12 days. The number of HPP-CFC colonies in each plate was counted under a microscope routinely. The assay was carried out at least in duplicate, and the numbers of HPP-CFC colonies were averaged.

[3] = test system: CD34^+CD38^− cells; assay: Expansion of CD34+CD38− cells using cord blood-derived CD34+CD38− cells (Example 6); assay type: cell-based, human; conditions: 1 μg/mL compound, CD34+CD38− starting cells, 50 ng/mL SCF, 7 days; based on number of CD34+CD38− cells in the presence of 10 ng/mL TPO
Experimental: The human cord blood-derived CD34^+CD38^− cells collected in Example 1 were plated on a 24-well plate (TPP) (from 3000 to 10000 cells/1 mL/well). As the culture medium, StemSpan SFEM (Stemcell Technologies) containing 50 ng/mL SCF (Peprotech) was used, and TPO (Peprotech) or Compound No. 1, No. 2, No. 4 or No. 6 in dimethyl sulfoxide in an amount of 0.1% (v/v) was added to a final concentration of […] or 1 μg/mL, respectively. After the cells were incubated in liquid culture at 37° C. for 7 days in a CO2 incubator (5% CO2), the number of CD34^+CD38^− cells was calculated in the same manner as in Example 2.
The expansion efficiencies in the presence of 1 μg/mL of the compounds based on the number of CD34^+CD38^− cells in the presence of 10 ng/mL TPO are shown in Table 5.

[4] = test system: SRC; assay: Transplantation of cell culture into NOD/SCID mice, human CD45+ cells in bone marrow (Example 7); assay type: in vivo; conditions: cells cultured with 1 μg/mL compound vs 10 ng/mL TPO; three weeks after transplantation (FIG. 3)
Experimental: Cultured cells obtained in the same manner as in Example 2 in the presence of TPO (Peprotech) at a final concentration of 10 ng/mL or in the presence of Compound No. 1 or No. 4 at a final concentration of 1 μg/mL was transplanted into at least three 7- to 8-week-old NOD/SCID mice by tail vein injection at 4 to 5×10^4 cells/mouse in terms of the initial number of CD34^+ cells after a sublethal dose of irradiation (2.75 to 3 Gy). Three weeks after the transplantation, the mice were killed, and the bone marrow cells were collected from both thighbones. Subsequently, the bone marrow cells were stained with a human CD45 antibody (APC, Becton, Dickinson and Company), then washed with PBS(−) containing 2% (v/v) FBS and stained with propidium iodide (Sigma-Aldrich Japan) added to a final concentration of 5 μg/mL. The stained cells were analyzed with a flow cytometer JSAN (Bay Bioscience) to determined the proportion of human CD45^+ cells in the bone marrow cells.
The proportions of human CD45^+ cells from the cell cultures incubated in the presence of 1 μg/mL of Compound No. 1 or No. 4 based on the proportion of human CD45^+ cells from the cell culture incubated in the presence of 10 ng/mL TPO are shown in FIG. 3.

[5] = test system: CD34^+NGFR^+ cells; assay: Transfection of cord blood CD34+ cells with NGFR gene, CD34+NGFR+ cell expansion (Example 10); parameters: species or system human; conditions: TPO 20 ng/mL or compound 0.3 μg/mL, 20 ng/mL SCF and Flt-3; based on number of CD34+NGFR+ cells in the absence of them
Experimental: The human cord blood-derived CD34^+ cells collected or purchased in Example 1 were plated on 3 cm-Petri dishes (TPP) (100000 cells/3 ml/dish). As the culture medium, StemSpan SFEM (Stemcell Technologies) containing 20 ng/ml SCF (Peprotech) and 20 ng/mL Flt-3 (Wako Pure Chemical Industries) was used, and TPO (Peprotech) or Compound No. 1 or No. 4 in dimethyl sulfoxide in an amount of 0.1% (v/v) was added to a final concentration of 20 ng/mL or 0.3 μg/mL, respectively. A negative control culture was incubated in the absence of TPO and the compounds.
After the cells were incubated in liquid culture at 37° C. for 24 hours in a CO2 incubator (5% CO2), 2 ml of the culture medium was sucked out, and 2 ml of the solution of the retrovirus for expression of NGFR prepared in Example 7 (containing 5 μg/mL protamine sulfate (Sigma-Aldrich Japan), 20 ng/ml SCF (Peprotech) and 20 ng/mL Flt-3 (Wako Pure Chemical Industries)) was added. TPO (Peprotech) or Compound No. 1 or No. 4 in dimethyl sulfoxide in an amount of 0.1% (v/v) was further added to a final concentration of […] or 0.3 μg/mL, respectively, and centrifugation at 2000 g was carried out at 32° C. for 30 minutes. Then, the cells were incubated in liquid culture under the same conditions as mentioned above for 24 hours, 2 ml of the culture medium was sucked out, 2 ml of the same solution of the retrovirus for expression of NGFR was added together with TPO or either compound, and centrifugation at 2000 g was carried out at 32° C. for 30 minutes. […] The cells were incubated in liquid culture under the same conditions as mentioned above for 24 hours, and the number of viable cells was counted by trypan blue assay (GIBCO).
The number of CD34^+ cells carrying NGFR introduced via the retrovirus vector (the number of CD34^+NGFR^+ cells) was calculated as follows. […] The stained cells were analyzed with JSAN (Bay Bioscience) to determined the proportion of CD34^+NGFR^+ cells, which was multiplied by the number of viable cells to calculate the number of CD34^+NGFR^+ cells. […]

**Q.** Which results are given for `C/C(=N\NC(=O)c1ccc(C(=O)NCc2cn(C)cn2)s1)c1csc(-c2ccc(Cl)c(Cl)c2)c1O` [Compound No. 1]?
**A.** fold induction at 1 µg/mL [1]: ≥ 10; Number of HPP-CFC colonies [2]: 41; Expansion efficiency [3]: 1.9; SRC expanding effect (proportion of human CD45+ cells in bone marrow) [4]: excellent SRC expanding effect; Expansion efficiency [5]: 9.8

**Q.** Which results are given for `C/C(=N\NC(=O)c1ccc(C(=O)NCc2ccc(C(N)=O)cc2)s1)c1csc(-c2ccc(Cl)c(Cl)c2)c1O` [Compound No. 4]?
**A.** fold induction at 1 µg/mL [1]: ≥ 10; Number of HPP-CFC colonies [2]: 45; Expansion efficiency [3]: 1.9; SRC expanding effect (proportion of human CD45+ cells in bone marrow) [4]: excellent SRC expanding effect; Expansion efficiency [5]: 12.5

**Q.** Which results are given for `C/C(=N\NC(=O)c1ccc(C(=O)NCc2cc(C)n(C)n2)s1)c1csc(-c2ccc(Cl)c(Cl)c2)c1O` [compound 2]?
**A.** fold induction at 1 µg/mL [1]: ≥ 10; Number of HPP-CFC colonies [2]: 35; Expansion efficiency [3]: 2.7

**Q.** Which fold induction at 1 µg/mL [1] does the source give for `C/C(=N\NC(=O)c1ccc(C(=O)Nc2cscn2)s1)c1csc(-c2ccc(Br)cc2)c1O` [compound 6] here?
**A.** Its fold induction at 1 µg/mL is ≥ 10.

**Q.** And the Expansion efficiency [3]?
**A.** Its Expansion efficiency is 1.4.

**Q.** How did the fold induction at 1 µg/mL [1] turn out when `CC(=O)Nc1ccc(C(C)NC(=O)c2ccc(C(=O)N/N=C(\C)c3csc(-c4ccc(Cl)cc4)c3O)s2)cc1` (centres unmarked) [compound 124] was run?
**A.** The fold induction at 1 µg/mL was ≥ 10.

**Q.** Which fold induction at 1 µg/mL [1] does the source give for `CC(=O)Nc1ccc(C(C)NC(=O)c2ccc(C(=O)N/N=C(\C)c3csc(-c4ccc(OC(F)(F)F)cc4)c3O)s2)cc1` (centres unmarked) [compound 125] here?
**A.** Its fold induction at 1 µg/mL is ≥ 10.

**Q.** `COc1ccc(-c2scc(/C(C)=N/NC(=O)c3ccc(C(=O)NC(C)c4ccc(NC(C)=O)cc4)s3)c2O)cc1` (centres unmarked) [compound 126] was tested. Which fold induction at 1 µg/mL [1] did it give?
**A.** Its fold induction at 1 µg/mL is ≥ 10.

**Q.** `C/C(=N\NC(=O)c1ccc(C(=O)NCc2cc(C)n(C)n2)s1)c1csc(-c2ccc(Br)cc2)c1O` [compound 127] was tested. Which fold induction at 1 µg/mL [1] did it give?
**A.** The fold induction at 1 µg/mL was ≥ 10.

**Q.** With `C/C(=N\NC(=O)c1ccc(C(=O)NCc2cc(C)n(C)n2)s1)c1csc(-c2ccc(OC(F)(F)F)cc2)c1O` [compound 128] as the compound, how does the fold induction at 1 µg/mL [1] read?
**A.** The fold induction at 1 µg/mL was ≥ 10.

**Q.** How did the fold induction at 1 µg/mL [1] turn out when `COc1ccc(-c2scc(/C(C)=N/NC(=O)c3ccc(C(=O)NCc4cc(C)n(C)n4)s3)c2O)cc1` [compound 129] was run?
**A.** Its fold induction at 1 µg/mL is ≥ 10.

**Q.** With `C/C(=N\NC(=O)c1ccc(C(=O)NCc2cn(C)cn2)s1)c1csc(-c2ccc(Br)cc2)c1O` [compound 130] as the compound, how does the fold induction at 1 µg/mL [1] read?
**A.** Its fold induction at 1 µg/mL is ≥ 10.

**Q.** Which Expansion efficiency [1] does the source give for `C/C(=N\NC(=O)c1ccc(C(=O)NCc2cn(C)cn2)s1)c1csc(-c2ccc(C(F)(F)F)cc2)c1O` [compound 131] here?
**A.** The Expansion efficiency was “A (A for expansion efficiencies of 10 or greater)”.

**Q.** With `C/C(=N\NC(=O)c1ccc(C(=O)NCc2cn(C)cn2)s1)c1csc(-c2ccc(Cl)cc2)c1O` [compound 132] as the compound, how does the fold induction at 1 µg/mL [1] read?
**A.** Its fold induction at 1 µg/mL is ≥ 10.

**Q.** For `COc1ccc(-c2scc(/C(C)=N/NC(=O)c3ccc(C(=O)NCc4cn(C)cn4)s3)c2O)cc1` [compound 133], which fold induction at 1 µg/mL [1] is on record?
**A.** The fold induction at 1 µg/mL was ≥ 10.

**Q.** For thrombopoietin [TPO], which Expansion efficiency [5] is on record?
**A.** Its Expansion efficiency is 7.7.
